Experiments:
[1] = system: HeLa cells microtubules; experiment: Immunofluorescence analysis of HeLa cells microtubules; type: cell-based, Human; conditions: 50 nM, 30 min
Protocol: (§1) Cells at a density of 20,000 cells per well were grown for 48 h on glass coverslips placed in a 24-well microplate. When cells reached 70% confluence, the medium was replaced with a fresh one supplemented with DMSO (0.005% or 0.01%) or the test compound at 50 nM or 1000 nM. After 30 min of incubation, cells were permeabilized in warm OPT buffer (80 mmol/L Pipes, […], 0.5% Triton X-100 and 10% Glycerol, pH 6.8) and fixed for 6 min in −20 °C methanol (Carlo ERBA SAS, #414855, Val-de-Reuil, France). After washing and saturation with a specific blocking buffer (3% BSA), 10% Goat serum (Gibco Invitrogen, #16210064, Carlsbad, CA, USA) in PBS), cells were incubated for 45 min at room temperature (RT) with anti-alpha-tubulin antibody (clone α3A1 [40] in blocking buffer). Cells were washed twice again and subsequently incubated with Alexa 488 conjugated anti-mouse antibody (1:500 in blocking buffer, #115-545-166, Jackson immune-research laboratory, Cambridgeshire, UK) and DNA was stained with Hoechst 33342 (1:10,000 in blocking buffer) for 30 min at RT. Coverslips were mounted on glass slides with Moviol 4–88.
(§2) Images were captured with a Zeiss AxioimagerM2 microscope equipped with the acquisition software AxioVision (Marly-le-Roi, France).

[2] = system: cellular microtubules in HeLa cells; experiment: Quantitative immunoluminescent assay of the cellular microtubule content; type: cell-based; conditions: Homo sapiens, 0.5 h, 30 min incubation, mean ± SEM, read-out: IC50, drug concentration able to reduce the amount of cellular microtubules by half
Protocol: 7500 HeLa cells were seeded in 96-well microplates (#655086, Greiner bio One, Courtaboeuf, France) in 100 µL of complete medium per well and then incubated at 37 °C in 5% CO2 for 24 h. Cells were then treated for 30 min at 37 °C with the compounds at concentrations ranging from 1 to 5000 nM (1 microplate per molecule, 1 concentration per column), with 0.1% DMSO used as […] control (6 wells per microplate). After medium aspiration, treated cells were permeabilized for 10 min using 100 µL per well of warmed (37 °C) OPT buffer (80 mM Pipes, 1 mM EGTA, 1 mM MgCl2, 0.5% Triton X-100, and 10% glycerol, pH 6.8). Cells were fixed overnight at room temperature using 100 µL per well of 4% formaldehyde (Sigma Aldrich, #252549, Saint-Quentin-Fallavier, France) in PBS. Cells were washed 3 times in PBS, 0.1% Tween-20 (100 µL per well), then primary anti-alpha-tubulin antibody (clone α3A1 [40], 1:5000 in PBS 2% Bovine Serum Albumin (BSA)) was added for 45 min. Cells were washed twice again and secondary anti-mouse antibody coupled to HRP (1:2000 in PBS 2% BSA, #715-035-150, Jackson Immuno-Research Laboratories, Cambridgeshire, UK) was added for 45 min. Then, cells were washed again with PBS and 100 µL of ECL substrate (#170-5061, Bio-Rad Laboratories inc., USA) were injected in each well using the FLUOstar OPTIMA Microplate Reader (BMG Lab technology, Champagny-sur-Marne, France). The luminescent signal was read immediately after ECL injection.

[3] = system: RPE-1 cells; experiment: Cell viability, PrestoBlue assay, RPE-1; type: cell-based; conditions: Homo sapiens, 48 h, mean ± SEM, read-out: GI50 (concentration causing 50% cell growth inhibition)
Protocol: (§3) Cell viability was analyzed using the colorimetric PrestoBlue assay (Gibco Invitrogen, #A13262, Carlsbad, CA, USA). Cells were seeded in 96-well microplates (#655077, Greiner, Courtaboeuf, France) at density of 2500 cells per well and allowed to adhere for 24 h before being treated for 48 h with the drugs at indicated concentrations or corresponding concentrations of DMSO as controls, in a final volume of 90 µL. After 48 h of treatment, 10 µL PrestoBlue was added to each well and cells were incubated for another 45 min. The absorbance of each well was measured using a FLUOstar microplate reader (Excitation: 544 nm; Emission: 580 nm, BMG Lab technology, Champagny/Marne, France).

[4] = system: RPE1 cell microtubules; experiment: Immunofluorescence analysis of RPE1 cell microtubules; type: cell-based, human; conditions: RPE1 cells, 50 nM, 30 min
Protocol: as §1, §2

[5] = system: HeLa cells; experiment: Cell viability, PrestoBlue assay, HeLa; type: cell-based; conditions: Homo sapiens, 48 h, mean ± SEM, read-out: GI50 (concentration causing 50% cell growth inhibition)
Protocol: as §3

[6] = system: tubulin; design: method as in PMID 32781579; conditions: cited from earlier work
[7] = system: microtubular network of interphase cells; design: method as in PMID 32781579; conditions: cited from earlier work
[8] = biological target: porcine tubulin (Sus scrofa, UniProt P02550+P02554); experiment: biochemical
Sequence of porcine tubulin (P02554 whole entry): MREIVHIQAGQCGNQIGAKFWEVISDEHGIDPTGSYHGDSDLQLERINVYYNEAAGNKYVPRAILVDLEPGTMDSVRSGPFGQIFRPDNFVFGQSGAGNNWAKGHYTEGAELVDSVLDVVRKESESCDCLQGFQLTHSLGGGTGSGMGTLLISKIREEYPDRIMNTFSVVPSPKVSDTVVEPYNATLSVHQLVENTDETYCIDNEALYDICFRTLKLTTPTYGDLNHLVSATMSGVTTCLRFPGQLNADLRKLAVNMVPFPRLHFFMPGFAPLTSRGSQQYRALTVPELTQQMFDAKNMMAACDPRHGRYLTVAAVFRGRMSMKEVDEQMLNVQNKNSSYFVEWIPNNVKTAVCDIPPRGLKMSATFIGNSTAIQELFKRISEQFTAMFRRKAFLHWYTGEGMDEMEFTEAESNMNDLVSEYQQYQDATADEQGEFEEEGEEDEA
Sequence of porcine tubulin (P02550 whole entry): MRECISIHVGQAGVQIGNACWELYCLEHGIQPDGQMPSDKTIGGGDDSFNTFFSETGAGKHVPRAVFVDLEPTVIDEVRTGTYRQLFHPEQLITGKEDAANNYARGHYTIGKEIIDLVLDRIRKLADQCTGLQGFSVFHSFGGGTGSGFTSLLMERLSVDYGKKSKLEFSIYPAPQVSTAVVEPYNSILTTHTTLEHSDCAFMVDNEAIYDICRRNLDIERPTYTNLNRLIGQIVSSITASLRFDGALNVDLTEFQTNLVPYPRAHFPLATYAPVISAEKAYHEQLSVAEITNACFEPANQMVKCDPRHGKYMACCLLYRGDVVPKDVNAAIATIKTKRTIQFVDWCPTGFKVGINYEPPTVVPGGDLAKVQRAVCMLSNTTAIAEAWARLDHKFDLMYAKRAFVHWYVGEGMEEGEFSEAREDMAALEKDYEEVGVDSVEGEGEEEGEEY
Protocol: Tubulin polymerization kit ((#BK004) was purchased from Cytoskeleton, Inc. (Denver, CO, USA). To study the effect of the compounds on MT assembly, the absorbance-based in vitro tubulin polymerization assay was performed following the manufacturer’s protocol. The reaction mixture containing porcine tubulin (40 µM) in G-PEM buffer (80 mM PIPES pH 6.9, 2.0 mM MgCl2, 0.5 mM EGTA, and 5% glycerol) supplemented with 1.0 mM GTP, in the presence of DMSO (0.18%) or the compound to be tested, was prepared and added to each well of a 96-well plate (half area, #675096, Greiner Bio One, Courtaboeuf, France). Tubulin polymerization was monitored by the increase in absorbance over time, measured by a CLARIOstar^plus Microplate reader from BMG Lab technology (Champagny-sur-Marne, France).

Structure (SMILES): COc1ccc(/C=C\c2cc(OC)c(OC)c(OC)c2)cc1O [C-A4, combretastatin-A4]
- state of the MT network by immunofluorescence [1]: only few MTs remain
- IC50 [2]: 4.5 ± 0.76 nM
- GI50 [3]: 4.16 ± 1.42 nM
- effect on cell microtubules by immunofluorescence [4]: depolymerized cell microtubules
- GI50 [5]: 0.93 ± 0.07 nM

Structure (SMILES): Cc1cc(-n2cccc2)c(C)c2c1[nH]c1ccc(Cl)cc12 [Carba1]
- effect on tubulin assembly kinetics [6]: visible depolymerizing effect
- effect on the microtubular network of interphase cells [7]: no detectable effect

Structure (SMILES): COc1cc2c(c(OC)c1OC)-c1ccc(OC)c(=O)cc1[C@@H](NC(C)=O)CC2 [colchicine]
- state of the MT network by immunofluorescence [1]: a MT network is still present

Structure (SMILES): COC(=O)Nc1nc2ccc(C(=O)c3cccs3)cc2[nH]1 [nocodazole]
- state of the MT network by immunofluorescence [1]: a MT network is still present
- IC50 [2]: 350 ± 76.4 nM
- GI50 [3]: 81.7 ± 4.41 nM
- IC50 [8]: ~5000 nM
- concentration giving almost complete depolymerization / inhibition of tubulin assembly ([8]; tubulin 40 µM): ≥ 40 µM
- GI50 [5]: 49.3 ± 2.6 nM

Structure (SMILES): CC[C@]1(O)C[C@@H]2CN(CCc3c([nH]c4ccccc34)[C@@](C(=O)OC)(c3cc4c(cc3OC)N(C)[C@H]3[C@@](O)(C(=O)OC)[C@H](OC(C)=O)[C@]5(CC)C=CCN6CC[C@]43[C@@H]65)C2)C1 [vinblastine]
- state of the MT network by immunofluorescence [1]: only few MTs remain
- IC50 [2]: 4.83 ± 0.17 nM
- GI50 [3]: 0.7 ± 0.77 nM
- effect on cell microtubules by immunofluorescence [4]: depolymerized cell microtubules
- IC50 [8]: ~1000 nM
- GI50 [5]: 0.73 ± 0.02 nM
